The text below walks through data of patent US10683296B2, “TLR7 agonist trifluoroacetate salt and crystalline form B thereof, preparation methods and uses” (CHIA TAI TIANQING PHARMACEUTICAL GROUP CO., LTD., priority 2016, dated 2020).

Data set [1] has as its target T1, Toll-like receptor 7 (HEK-blue hTLR7 cell) (Homo sapiens, UniProt Q9NYK1).
T1 construct: host or cells: HEK-blue hTLR7 cell (HEK293-derived reporter line)
T1 sequence (Q9NYK1 27-1049): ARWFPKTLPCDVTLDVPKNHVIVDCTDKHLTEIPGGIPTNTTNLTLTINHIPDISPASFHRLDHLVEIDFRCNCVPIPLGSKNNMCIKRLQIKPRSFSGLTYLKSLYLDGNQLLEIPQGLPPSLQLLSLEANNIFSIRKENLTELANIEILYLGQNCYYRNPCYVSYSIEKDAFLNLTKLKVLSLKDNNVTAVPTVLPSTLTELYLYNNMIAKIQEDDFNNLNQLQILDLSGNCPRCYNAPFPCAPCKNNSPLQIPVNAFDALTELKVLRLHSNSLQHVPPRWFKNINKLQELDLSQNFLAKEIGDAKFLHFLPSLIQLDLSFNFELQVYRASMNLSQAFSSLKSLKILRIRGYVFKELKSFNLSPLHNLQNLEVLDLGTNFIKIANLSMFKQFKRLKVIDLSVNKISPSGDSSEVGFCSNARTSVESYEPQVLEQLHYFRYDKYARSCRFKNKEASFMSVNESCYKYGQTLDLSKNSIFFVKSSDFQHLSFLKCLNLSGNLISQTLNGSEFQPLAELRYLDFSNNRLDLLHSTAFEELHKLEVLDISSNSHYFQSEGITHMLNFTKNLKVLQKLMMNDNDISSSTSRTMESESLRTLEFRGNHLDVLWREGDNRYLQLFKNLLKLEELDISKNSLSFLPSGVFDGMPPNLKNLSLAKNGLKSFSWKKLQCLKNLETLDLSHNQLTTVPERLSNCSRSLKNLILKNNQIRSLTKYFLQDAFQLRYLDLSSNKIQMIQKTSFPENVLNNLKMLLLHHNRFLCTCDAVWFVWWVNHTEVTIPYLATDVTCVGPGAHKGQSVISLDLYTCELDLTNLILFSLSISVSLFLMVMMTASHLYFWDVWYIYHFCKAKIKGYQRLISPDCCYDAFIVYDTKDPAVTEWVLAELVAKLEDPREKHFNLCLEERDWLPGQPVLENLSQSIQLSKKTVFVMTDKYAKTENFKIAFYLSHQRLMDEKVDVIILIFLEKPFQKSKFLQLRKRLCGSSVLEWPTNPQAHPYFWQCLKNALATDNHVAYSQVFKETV
Kind of data set: Toll-like receptor 7 in vitro receptor binding activity screen (HEK-blue hTLR7 cell, alkaline phosphatase reporter). The format is cell-based. The settings on record: versus control GS-9620. How it is done:
(§1) • HEK-blue hTLR7 cell and HEK-blue hTLR8 cell (available from InvivoGen) • DMEM medium • heat inactivated fetal bovine serum • Anti Mycoplasma reagent Normocin™ • bleomycin • blasticidin
(§2) The structures of GS-9620 and R848 used are as follows, wherein the preparation of GS-9620 could be referred to the process disclosed in US20100143301; R848 was commercially available from ABGENT (IMG-2208, specification: 0.5 mg).
(§3) The compounds were gradient diluted with DMSO in 3-fold using liquid work station POD starting at a concentration of 10 mmol/L and 10 points were diluted (2nd column to 11th column, and each point was duplicated). At 12th column, 1 μL of 5 mg/mL positive compound R848 was added as positive control; and at 1st column, 1 μL of DMSO was added as negative control. Each well contained 1 μL of DMSO. • 2. The cells in culture flask were collected and the cell density was diluted to 250,000 cells/mL. • 3. 200 μL (50,000 cells/well) of cell suspension was added into prepared compound plate and the final concentration of DMSO in each well was 0.5%. • 4. The culture plates containing cells and the compounds were incubated in CO2 incubator for 24 h at 37° C., 5% CO2. • 5. […] After 1 h, the content of alkaline phosphatase in 20 μL of supernatant was determined using Microplate Reader OD650. • 7. […]

In data set [2] the target is T2, Toll-like receptor 8 (HEK-blue hTLR8 cell) (Homo sapiens, UniProt Q9NR97).
T2 construct: host or cells: HEK-blue hTLR8 cell (HEK293-derived reporter line)
T2 sequence (Q9NR97 27-1041): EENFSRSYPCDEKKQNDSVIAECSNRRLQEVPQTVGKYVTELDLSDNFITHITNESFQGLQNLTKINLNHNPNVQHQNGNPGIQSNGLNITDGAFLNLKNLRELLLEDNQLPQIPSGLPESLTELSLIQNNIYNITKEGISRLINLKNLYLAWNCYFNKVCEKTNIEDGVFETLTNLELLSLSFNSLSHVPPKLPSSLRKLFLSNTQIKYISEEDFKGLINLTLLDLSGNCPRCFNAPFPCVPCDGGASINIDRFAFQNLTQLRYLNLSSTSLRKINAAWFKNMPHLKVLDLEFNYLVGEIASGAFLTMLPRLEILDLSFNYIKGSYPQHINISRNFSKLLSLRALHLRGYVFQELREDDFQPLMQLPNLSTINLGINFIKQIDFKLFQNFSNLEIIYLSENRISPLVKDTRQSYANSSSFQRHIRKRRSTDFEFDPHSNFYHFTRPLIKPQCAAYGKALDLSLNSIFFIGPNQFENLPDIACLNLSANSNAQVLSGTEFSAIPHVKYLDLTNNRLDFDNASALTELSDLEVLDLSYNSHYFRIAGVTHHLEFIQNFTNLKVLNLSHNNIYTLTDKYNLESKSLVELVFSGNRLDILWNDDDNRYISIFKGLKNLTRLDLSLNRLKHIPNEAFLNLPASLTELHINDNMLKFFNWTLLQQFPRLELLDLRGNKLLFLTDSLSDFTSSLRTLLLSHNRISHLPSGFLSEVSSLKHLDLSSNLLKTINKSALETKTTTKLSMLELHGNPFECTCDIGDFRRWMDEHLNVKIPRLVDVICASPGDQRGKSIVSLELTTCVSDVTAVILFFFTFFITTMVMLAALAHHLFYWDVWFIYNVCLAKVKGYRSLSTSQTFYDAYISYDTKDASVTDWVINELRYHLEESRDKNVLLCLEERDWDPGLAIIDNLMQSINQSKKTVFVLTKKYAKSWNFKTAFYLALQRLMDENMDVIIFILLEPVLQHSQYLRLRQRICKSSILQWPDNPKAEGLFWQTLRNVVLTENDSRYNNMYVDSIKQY
Kind of data set: Toll-like receptor 8 in vitro receptor binding activity screen (HEK-blue hTLR8 cell, alkaline phosphatase reporter). The format is cell-based. The settings on record: versus control GS-9620. How it is done:
as §1, §2, §3

The test system of data set [3] is human peripheral blood mononuclear cells (PBMC). Kind of data set: Peripheral blood mononuclear cell cytokine stimulating test. The format is cell-based. To be noted: for TNF-α MEC / IFN-α MEC: human PBMC, 24 h, CBA flow cytometry; for IFN-α MEC: lowest drug concentration stimulating the production of 30 pg/mL of IFN-α. How it is done: The purpose of this example is to determine the expression level of cytokines 24 h after stimulation to human peripheral blood mononuclear cells (PBMC) with the compound of formula I.
The cell supernatant was assayed without dilution and the levels of IFN-α were directly determined. The compound of formula was firstly formulated into 20 mM DMSO stock solution and was gradient diluted with cell medium in 10-fold with the total number of 11 diluting points. The compounds in 9 diluting points (the highest concentration was 200 μmol/L) were added into 96-well plate with 50 μL in each well. Fresh human peripheral blood mononuclear cells were inoculated, with 150 μL in each well containing 450,000 cells. The cell culture plate was incubated in an incubator at 37° C., 5% CO2 for 24 h. After incubation, the culture plate was centrifuged at 1200 rpm for 5 min and the supernatant was collected and stored at −20° C. for determination. The determination of cytokine was performed using Cytometric Bead Array (CBA) of BD-Pharmingen on flow cytometer. Using the above determining method, the lowest drug concentration stimulating the production of 30 pg/mL of IFN-α was designated as the MEC value in the cytokine stimulating test.

A short description of data set [4]: Stability tests of crystal form B (high temperature, high humidity, light). The settings on record: general statement; no data of Examples 2-4 printed. In kind it is physicochemical. The method, then:
The crystal form B prepared in Example 1 was tested in the accelerated test under high temperature conditions for stability in accordance with Guidelines for the Stability Test of Pharmaceutical Ingredients and Pharmaceutical Preparations (Chinese Pharmacopoeia 2010 Appendix XIXC).
The crystal form B was placed in an open-clean container at 60° C. The samples were taken for test on day 10, day 20 and day 30, respectively. The results were compared with the initial test result on day 0.
The crystal form B prepared in Example 1 was tested in the accelerated test under high humidity conditions for stability in accordance with Guidelines for the Stability Test of Pharmaceutical Ingredients and Pharmaceutical Preparations (Chinese Pharmacopoeia 2010 Appendix XIXC).
The crystal form B was subjected to an accelerated test in a constant temperature and humidity vessel under the conditions of 40° C./75% humidity (open). The samples were taken for test on day 30, day 60 and day 90, respectively. The results were compared with the initial test result on day 0.
The crystal form B prepared in Example 1 under light conditions was tested for stability in accordance with Guidelines for the Stability Test of Pharmaceutical Ingredients and Pharmaceutical Preparations (Chinese Pharmacopoeia 2010 Appendix XIXC).
The crystal form B was placed in an illumination environment of 5000 Lx±500 Lx. […]

Regarding `CCCCOc1nc(N)c2[nH]cc(Cc3ccc(CN4CCCC4)cc3)c2n1` [The compound of formula I, 2-butoxy-7-(4-(pyrrolidin-1-ylmethyl)benzyl)-5H-pyrrolo[3,2-d]pyrimidin-4-amine], in data set [1], the “in vitro receptor binding activity to Toll-like receptor 7 compared with the control GS-9620” value is reported as “higher”. Besides, the “in vitro receptor binding activity to Toll-like receptor 8 compared with the control GS-9620” value in data set [2] is recorded as “lower”. Moreover, in data set [3], the “TNF-α MEC” value worked out at 500 nM and the “IFN-α MEC” value was determined as 5 nM. Further, in data set [3] (versus control GS-9620), the “TNF-α inducing activity compared with the control GS-9620” value was “comparable” and the “in vitro IFN-α inducing activity of PBMCs compared with the control GS-9620” value was “better”.

Turning to `CCCCOc1nc(N)c2c(n1)N(Cc1cccc(CN3CCCC3)c1)CC(=O)N2` [GS-9620, reference compound], in data set [3], the “TNF-α MEC” value was 500 nM and the “IFN-α MEC” value is 50 nM.

`CCCCOc1nc(N)c2[nH]cc(Cc3ccc(CN4CCCC4)cc3)c2n1.O=C(O)C(F)(F)F` [Crystal Form B of Trifluoroacetate of 2-butoxy-7-(4-(pyrrolidin-1-ylmethyl)benzyl)-5H-pyrrolo[3,2-d]pyrimidin-4-amine]: the “stability of the crystal form” value in data set [4] was “good stability”.
